Laboratory results published in ChEMBL document CHEMBL4325851, “Synthesis of aminopyrazole analogs and their evaluation as CDK inhibitors for cancer therapy” (Bioorg Med Chem Lett, 2018).

Experiments:
MIA PaCa-2 [1] = assay: Induction of apoptosis in human MIAPaCa2 cells assessed as increase in caspases 3/7 activity at 10 uM after 12 hrs by Caspase-Glo assay relative to control; type: functional
[2] = biological target: Cyclin-dependent kinase 5/CDK5 activator 1 (Homo sapiens) (UniProt Q00535+Q15078); assay: Inhibition of CDK5/p35 (unknown origin) at 100 nM in presence of ATP relative to control; type: protein-complex assay
Sequence of Cyclin-dependent kinase 5/CDK5 activator 1 (Homo sapiens) (Q00535 whole entry): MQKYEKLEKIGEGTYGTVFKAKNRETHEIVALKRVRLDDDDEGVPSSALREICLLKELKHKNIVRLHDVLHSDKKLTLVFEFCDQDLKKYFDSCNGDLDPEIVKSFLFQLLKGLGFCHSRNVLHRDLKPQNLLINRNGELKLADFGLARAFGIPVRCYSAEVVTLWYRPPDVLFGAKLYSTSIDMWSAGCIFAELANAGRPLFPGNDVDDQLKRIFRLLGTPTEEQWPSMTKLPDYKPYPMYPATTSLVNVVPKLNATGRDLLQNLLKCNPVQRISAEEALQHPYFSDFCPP
Sequence of Cyclin-dependent kinase 5/CDK5 activator 1 (Homo sapiens) (Q15078 99-307 partner limits assumed): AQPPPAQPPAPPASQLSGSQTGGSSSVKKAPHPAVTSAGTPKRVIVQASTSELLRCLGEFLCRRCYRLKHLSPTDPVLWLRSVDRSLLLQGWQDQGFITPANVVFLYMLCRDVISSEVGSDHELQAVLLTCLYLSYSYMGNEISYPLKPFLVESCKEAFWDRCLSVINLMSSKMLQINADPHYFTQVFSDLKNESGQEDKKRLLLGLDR

ASPC1 = assay: Antiproliferative activity against human AsPC1 cells after 72 hrs by prestoblue assay; type: functional, cell-based; conditions: ASPC1, 72 h
[3] = biological target: Mitogen-activated protein kinase 14 (Homo sapiens, UniProt Q16539); assay: Inhibition of MAPK14 (unknown origin) after 22 mins by homogeneous time-resolved fluorescence assay
Sequence of Mitogen-activated protein kinase 14 (Q16539 whole entry): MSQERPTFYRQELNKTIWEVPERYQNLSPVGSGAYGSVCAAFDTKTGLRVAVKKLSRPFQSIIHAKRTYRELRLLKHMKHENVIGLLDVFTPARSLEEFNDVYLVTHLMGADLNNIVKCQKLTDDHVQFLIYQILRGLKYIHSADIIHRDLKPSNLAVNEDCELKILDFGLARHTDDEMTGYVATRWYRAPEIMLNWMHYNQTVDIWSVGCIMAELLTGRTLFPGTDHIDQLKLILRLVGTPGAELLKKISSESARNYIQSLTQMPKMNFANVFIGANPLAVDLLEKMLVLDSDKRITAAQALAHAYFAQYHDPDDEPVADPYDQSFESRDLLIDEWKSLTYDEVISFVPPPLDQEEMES

[4] = biological target: Cyclin-dependent kinase 9 (Homo sapiens, UniProt P50750); assay: Inhibition of CDK9 (unknown origin)
Sequence of Cyclin-dependent kinase 9 (P50750 whole entry): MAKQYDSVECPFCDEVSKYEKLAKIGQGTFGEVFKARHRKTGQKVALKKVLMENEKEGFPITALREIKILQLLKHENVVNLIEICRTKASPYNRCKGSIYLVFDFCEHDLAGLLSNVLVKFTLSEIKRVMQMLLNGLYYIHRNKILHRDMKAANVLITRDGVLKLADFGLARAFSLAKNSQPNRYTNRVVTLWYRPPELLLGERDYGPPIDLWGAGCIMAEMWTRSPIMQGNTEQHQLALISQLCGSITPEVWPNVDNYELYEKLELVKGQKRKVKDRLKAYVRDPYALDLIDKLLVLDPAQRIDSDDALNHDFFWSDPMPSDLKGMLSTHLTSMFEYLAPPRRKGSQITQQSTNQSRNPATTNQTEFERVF

[5] = biological target: Tyrosine-protein kinase BTK (Homo sapiens, UniProt Q06187); assay: Inhibition of BTK (unknown origin)
Sequence of Tyrosine-protein kinase BTK (Q06187 whole entry): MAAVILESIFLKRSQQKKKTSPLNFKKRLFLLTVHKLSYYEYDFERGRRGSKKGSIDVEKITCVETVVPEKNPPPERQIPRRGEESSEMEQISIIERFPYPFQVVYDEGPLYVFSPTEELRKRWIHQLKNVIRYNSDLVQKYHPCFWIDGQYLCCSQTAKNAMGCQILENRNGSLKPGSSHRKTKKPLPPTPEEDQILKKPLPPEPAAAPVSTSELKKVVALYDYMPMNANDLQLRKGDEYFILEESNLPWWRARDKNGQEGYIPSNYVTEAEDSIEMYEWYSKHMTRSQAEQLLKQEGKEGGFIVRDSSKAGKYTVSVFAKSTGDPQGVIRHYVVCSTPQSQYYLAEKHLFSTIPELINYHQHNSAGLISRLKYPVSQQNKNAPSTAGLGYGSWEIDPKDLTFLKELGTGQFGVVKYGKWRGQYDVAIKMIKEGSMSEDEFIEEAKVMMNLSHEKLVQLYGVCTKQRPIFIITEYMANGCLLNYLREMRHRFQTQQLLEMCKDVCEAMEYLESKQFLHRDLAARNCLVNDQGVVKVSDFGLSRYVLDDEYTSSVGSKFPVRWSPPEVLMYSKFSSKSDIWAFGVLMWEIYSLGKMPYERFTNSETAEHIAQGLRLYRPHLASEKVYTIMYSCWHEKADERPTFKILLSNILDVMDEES

Aurora kinase B = Aurora kinase B (Homo sapiens, UniProt Q96GD4); assay: Inhibition of Aurora B (unknown origin)
Sequence of Aurora kinase B (Q96GD4 whole entry): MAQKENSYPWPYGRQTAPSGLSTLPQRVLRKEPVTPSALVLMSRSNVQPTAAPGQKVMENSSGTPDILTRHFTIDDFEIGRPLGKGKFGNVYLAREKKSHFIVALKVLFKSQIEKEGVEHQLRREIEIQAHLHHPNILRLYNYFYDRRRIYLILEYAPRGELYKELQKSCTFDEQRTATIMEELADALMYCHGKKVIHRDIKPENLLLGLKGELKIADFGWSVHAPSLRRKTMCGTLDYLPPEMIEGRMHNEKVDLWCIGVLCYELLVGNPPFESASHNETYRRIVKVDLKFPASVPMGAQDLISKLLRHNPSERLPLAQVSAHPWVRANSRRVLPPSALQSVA

[6] = biological target: T1, Inhibitor of nuclear factor kappa-B kinase subunit beta (Homo sapiens, UniProt O14920); assay: Inhibition of IKKbeta (unknown origin)
T1 sequence (O14920 whole entry): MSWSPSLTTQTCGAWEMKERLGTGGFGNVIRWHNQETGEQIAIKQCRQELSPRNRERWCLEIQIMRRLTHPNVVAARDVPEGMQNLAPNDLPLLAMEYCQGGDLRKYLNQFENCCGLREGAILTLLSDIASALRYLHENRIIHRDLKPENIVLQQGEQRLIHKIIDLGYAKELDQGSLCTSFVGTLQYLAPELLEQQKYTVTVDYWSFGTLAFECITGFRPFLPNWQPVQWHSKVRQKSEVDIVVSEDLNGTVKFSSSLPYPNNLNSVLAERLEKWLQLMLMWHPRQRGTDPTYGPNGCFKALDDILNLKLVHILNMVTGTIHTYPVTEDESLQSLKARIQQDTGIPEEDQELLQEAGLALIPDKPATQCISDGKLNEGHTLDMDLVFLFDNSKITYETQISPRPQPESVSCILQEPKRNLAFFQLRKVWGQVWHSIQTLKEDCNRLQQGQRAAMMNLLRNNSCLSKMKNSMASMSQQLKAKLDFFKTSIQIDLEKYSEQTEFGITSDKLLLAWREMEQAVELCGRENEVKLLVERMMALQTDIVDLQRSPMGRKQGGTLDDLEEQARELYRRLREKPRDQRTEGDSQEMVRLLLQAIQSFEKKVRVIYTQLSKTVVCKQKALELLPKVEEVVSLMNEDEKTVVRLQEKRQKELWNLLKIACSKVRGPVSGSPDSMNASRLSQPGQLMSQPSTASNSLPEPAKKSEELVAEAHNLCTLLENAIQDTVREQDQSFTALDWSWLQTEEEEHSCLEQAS

[7] = biological target: Cyclin-dependent kinase 2/cyclin E1 (Homo sapiens, UniProt P24941); assay: Inhibition of CDK2/CyclinE (unknown origin) in presence of ATP; type: protein-complex assay
[8] = biological target: Mitogen-activated protein kinase 10 (Homo sapiens, UniProt P53779); assay: Inhibition of JNK3 (unknown origin) after 22 mins by homogeneous time-resolved fluorescence assay
Sequence of Mitogen-activated protein kinase 10 (P53779 whole entry): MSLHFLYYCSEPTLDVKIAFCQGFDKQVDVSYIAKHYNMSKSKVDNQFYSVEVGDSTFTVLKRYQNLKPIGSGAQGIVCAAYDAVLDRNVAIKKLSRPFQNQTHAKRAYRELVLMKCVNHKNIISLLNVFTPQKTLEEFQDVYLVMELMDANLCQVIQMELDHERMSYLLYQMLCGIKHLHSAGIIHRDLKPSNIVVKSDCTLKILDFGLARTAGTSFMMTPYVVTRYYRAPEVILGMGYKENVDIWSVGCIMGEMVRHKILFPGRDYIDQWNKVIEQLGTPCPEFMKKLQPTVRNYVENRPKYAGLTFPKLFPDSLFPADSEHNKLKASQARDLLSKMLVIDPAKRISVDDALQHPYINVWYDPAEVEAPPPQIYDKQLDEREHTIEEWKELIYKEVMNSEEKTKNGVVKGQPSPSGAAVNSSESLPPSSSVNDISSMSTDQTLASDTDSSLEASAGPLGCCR

[9] = biological target: Cyclin-dependent kinase 5/CDK5 activator 1 (Homo sapiens, UniProt Q00535); assay: Inhibition of CDK5/p35 (unknown origin) in presence of ATP; type: protein-complex assay
Sequence of Cyclin-dependent kinase 5/CDK5 activator 1 (Q00535 whole entry): as the sequence (Q00535 whole entry) above
Sequence of Cyclin-dependent kinase 5/CDK5 activator 1 (Q15078 whole entry, further chain): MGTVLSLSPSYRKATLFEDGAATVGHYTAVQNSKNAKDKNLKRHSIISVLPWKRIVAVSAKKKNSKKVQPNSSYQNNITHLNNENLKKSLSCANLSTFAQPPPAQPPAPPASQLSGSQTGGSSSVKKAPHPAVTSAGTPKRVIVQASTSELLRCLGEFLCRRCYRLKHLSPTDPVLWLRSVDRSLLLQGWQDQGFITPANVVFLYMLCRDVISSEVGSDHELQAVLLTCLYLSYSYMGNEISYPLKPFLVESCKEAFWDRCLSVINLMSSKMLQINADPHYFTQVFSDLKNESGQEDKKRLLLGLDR

Aurora kinase A = biological target: T2, Aurora kinase A (Homo sapiens, UniProt O14965); assay: Inhibition of Aurora A (unknown origin)
T2 sequence (O14965 whole entry): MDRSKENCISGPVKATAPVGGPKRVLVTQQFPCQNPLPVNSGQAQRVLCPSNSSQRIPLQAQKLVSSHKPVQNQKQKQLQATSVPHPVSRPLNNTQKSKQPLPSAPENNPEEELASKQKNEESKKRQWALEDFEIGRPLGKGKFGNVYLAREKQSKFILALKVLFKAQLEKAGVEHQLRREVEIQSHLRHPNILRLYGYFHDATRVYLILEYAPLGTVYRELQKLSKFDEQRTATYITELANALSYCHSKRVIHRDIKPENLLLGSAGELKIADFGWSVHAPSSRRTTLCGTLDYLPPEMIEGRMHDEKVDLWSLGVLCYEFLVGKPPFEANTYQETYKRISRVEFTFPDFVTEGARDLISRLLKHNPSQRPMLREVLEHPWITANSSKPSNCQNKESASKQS

MIA PaCa-2 [10] = assay: Antiproliferative activity against human MIAPaCa2 cells after 72 hrs by prestoblue assay; type: functional, cell-based; conditions: MIA PaCa-2, 72 h
[11] = Antiproliferative activity against human S2-013 cells after 72 hrs by prestoblue assay; type: functional, cell-based
[12] = Antiproliferative activity against human SUIT2 cells after 72 hrs by prestoblue assay; type: functional, cell-based; conditions: SUIT-2, 72 h
[13] = biological target: T3, Tyrosine-protein kinase ITK/TSK (Homo sapiens, UniProt Q08881); assay: Inhibition of ITK (unknown origin)
T3 sequence (Q08881 whole entry): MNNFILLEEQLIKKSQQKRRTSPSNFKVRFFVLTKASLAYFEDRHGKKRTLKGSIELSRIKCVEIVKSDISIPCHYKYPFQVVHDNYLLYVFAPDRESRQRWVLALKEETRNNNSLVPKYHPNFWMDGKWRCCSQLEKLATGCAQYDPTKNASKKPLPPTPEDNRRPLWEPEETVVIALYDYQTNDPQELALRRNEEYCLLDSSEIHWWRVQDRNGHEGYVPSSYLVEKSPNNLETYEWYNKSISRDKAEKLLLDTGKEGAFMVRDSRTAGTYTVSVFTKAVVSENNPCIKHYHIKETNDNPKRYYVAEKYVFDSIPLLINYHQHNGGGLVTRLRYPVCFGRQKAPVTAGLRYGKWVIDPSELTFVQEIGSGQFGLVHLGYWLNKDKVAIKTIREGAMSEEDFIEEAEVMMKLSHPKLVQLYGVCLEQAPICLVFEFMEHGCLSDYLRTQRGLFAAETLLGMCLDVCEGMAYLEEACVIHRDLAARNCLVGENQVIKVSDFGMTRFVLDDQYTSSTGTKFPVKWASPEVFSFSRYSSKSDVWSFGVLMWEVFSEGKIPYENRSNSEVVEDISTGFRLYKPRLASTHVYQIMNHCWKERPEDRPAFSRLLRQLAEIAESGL

[14] = biological target: High affinity nerve growth factor receptor (Homo sapiens, UniProt P04629); assay: Inhibition of TRKA (unknown origin)
Sequence of High affinity nerve growth factor receptor (P04629 whole entry): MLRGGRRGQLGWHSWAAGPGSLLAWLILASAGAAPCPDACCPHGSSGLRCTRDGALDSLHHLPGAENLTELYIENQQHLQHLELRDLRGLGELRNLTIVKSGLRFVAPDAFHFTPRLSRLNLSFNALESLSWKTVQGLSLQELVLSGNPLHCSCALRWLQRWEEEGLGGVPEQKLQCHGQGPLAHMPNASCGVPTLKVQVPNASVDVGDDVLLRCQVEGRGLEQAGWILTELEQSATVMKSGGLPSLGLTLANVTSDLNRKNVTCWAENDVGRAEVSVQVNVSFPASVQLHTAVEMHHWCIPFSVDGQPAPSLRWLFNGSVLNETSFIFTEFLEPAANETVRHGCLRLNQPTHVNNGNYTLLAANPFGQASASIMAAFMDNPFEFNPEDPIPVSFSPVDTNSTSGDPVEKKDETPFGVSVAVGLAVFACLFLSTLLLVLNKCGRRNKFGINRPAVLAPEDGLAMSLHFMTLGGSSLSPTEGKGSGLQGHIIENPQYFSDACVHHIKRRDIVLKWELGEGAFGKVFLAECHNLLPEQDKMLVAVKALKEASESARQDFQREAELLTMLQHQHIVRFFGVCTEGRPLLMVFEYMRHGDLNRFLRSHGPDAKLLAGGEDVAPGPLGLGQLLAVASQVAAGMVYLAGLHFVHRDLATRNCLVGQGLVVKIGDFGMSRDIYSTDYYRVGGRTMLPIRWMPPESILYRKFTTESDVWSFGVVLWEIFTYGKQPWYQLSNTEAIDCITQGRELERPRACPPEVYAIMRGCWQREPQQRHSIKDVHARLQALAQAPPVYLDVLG

[15] = biological target: Leucine-rich repeat serine/threonine-protein kinase 2 (Homo sapiens, UniProt Q5S007); assay: Inhibition of LRRK2 (unknown origin)
Homo sapiens [16] = organism: Homo sapiens; assay: Selectivity ratio of IC50 for CDK9 (unknown origin) to IC50 for CDK5/p35 (unknown origin)
[17] = biological target: T4, Mitogen-activated protein kinase kinase kinase 12 (Homo sapiens, UniProt Q12852); assay: Inhibition of DLK (unknown origin)
T4 sequence (Q12852 whole entry): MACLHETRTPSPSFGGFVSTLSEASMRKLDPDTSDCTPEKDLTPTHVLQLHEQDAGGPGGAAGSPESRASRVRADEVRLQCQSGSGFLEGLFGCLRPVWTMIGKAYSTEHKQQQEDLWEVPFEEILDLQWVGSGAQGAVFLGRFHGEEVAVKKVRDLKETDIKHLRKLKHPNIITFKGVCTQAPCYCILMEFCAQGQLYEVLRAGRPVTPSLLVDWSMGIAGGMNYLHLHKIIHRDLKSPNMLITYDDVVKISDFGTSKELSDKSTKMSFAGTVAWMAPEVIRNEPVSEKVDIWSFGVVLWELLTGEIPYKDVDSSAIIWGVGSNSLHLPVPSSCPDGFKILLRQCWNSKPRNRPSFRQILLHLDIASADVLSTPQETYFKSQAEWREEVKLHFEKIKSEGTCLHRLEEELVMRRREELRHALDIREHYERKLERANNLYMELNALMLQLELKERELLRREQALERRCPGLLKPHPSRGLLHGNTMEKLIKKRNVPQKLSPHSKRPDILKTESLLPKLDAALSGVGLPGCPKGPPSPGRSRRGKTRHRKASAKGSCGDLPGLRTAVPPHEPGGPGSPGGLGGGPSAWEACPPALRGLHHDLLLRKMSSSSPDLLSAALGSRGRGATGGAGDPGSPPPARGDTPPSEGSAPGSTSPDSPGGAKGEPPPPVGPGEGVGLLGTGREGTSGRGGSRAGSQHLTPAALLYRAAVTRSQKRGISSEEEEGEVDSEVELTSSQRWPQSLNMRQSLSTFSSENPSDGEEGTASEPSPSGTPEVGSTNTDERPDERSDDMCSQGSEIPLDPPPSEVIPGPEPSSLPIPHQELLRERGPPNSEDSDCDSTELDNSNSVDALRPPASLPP

[18] = biological target: Serine/threonine-protein kinase PAK 1 (Homo sapiens, UniProt Q13153); assay: Inhibition of PAK1 (unknown origin)
Sequence of Serine/threonine-protein kinase PAK 1 (Q13153 whole entry): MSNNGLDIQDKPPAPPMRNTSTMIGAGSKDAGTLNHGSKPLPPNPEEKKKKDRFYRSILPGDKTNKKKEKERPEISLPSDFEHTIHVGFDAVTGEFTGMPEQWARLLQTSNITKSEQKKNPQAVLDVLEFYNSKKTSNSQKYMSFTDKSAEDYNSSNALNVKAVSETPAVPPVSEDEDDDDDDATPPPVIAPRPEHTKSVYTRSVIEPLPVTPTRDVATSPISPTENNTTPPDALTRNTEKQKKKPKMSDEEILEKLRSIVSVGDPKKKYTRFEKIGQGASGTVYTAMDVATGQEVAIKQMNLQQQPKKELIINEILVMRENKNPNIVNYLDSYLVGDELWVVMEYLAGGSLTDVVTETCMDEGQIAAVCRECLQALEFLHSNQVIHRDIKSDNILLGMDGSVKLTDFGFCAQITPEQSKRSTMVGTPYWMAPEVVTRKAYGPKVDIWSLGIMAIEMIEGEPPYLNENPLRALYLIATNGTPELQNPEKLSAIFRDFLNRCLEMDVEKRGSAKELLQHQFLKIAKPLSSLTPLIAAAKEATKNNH

Homo sapiens [19] = organism: Homo sapiens; assay: Selectivity ratio of IC50 for CDK9 (unknown origin) to IC50 for CDK2/CyclinE (unknown origin)
BXPC-3 = assay: Antiproliferative activity against human BxPC3 cells after 72 hrs by prestoblue assay; type: functional, cell-based; conditions: BXPC-3, 72 h

For Cc1cc(NC(=O)C/C=C/c2ccccc2)n[nH]1, the “fold change (FC)” value (MIA PaCa-2 [1]) was <2 and the inhibition [2] was > 90%.
For O=C(Cc1ccc2c(c1)OCCO2)Nc1cc(C2CCCC2)[nH]n1, the “fold change (FC)” value (MIA PaCa-2 [1]) was <2 and the inhibition [2] was > 90%.
For O=C(Cc1ccc2c(c1)OCCO2)Nc1cc(C2CCC2)[nH]n1, the “fold change (FC)” value (MIA PaCa-2 [1]) was <2 and the inhibition [2] was > 90%.
With O=C(Cc1ccc(-c2ccccc2)cc1)Nc1cc(C2CCC2)[nH]n1 the IC50 (ASPC1) was 315 nM, the IC50 [3] was > 10000 nM and the IC50 [4] was 911 nM. For the same compound, the IC50 [5] was > 10000 nM, the IC50 (Aurora kinase B) was > 10000 nM and the IC50 [6] was > 10000 nM. For the same compound, the IC50 [7] was 24 nM, the IC50 [8] was > 10000 nM and the IC50 [9] was 23 nM. The IC50 (Aurora kinase A) was > 10000 nM, the IC50 (MIA PaCa-2 [10]) was 247 nM and the IC50 [11] was 192 nM. The IC50 [12] was 209 nM, the IC50 [13] was > 10000 nM and the IC50 [14] was > 10000 nM. For the same compound, the IC50 [15] was > 10000 nM, the Ratio IC50 (Homo sapiens [16]) was > 35 and the “fold change (FC)” value (MIA PaCa-2 [1]) was >2. For the same compound, the IC50 [17] was > 10000 nM, the inhibition [2] was > 90% and the IC50 [18] was > 10000 nM. The Ratio IC50 (Homo sapiens [19]) was > 35.
In the case of O=C(Cc1ccc2c(c1)OCCO2)Nc1cc(-c2ccccc2)[nH]n1, the “fold change (FC)” value (MIA PaCa-2 [1]) is reported as <2 and the inhibition [2] is reported as > 90%.
In the case of COc1ccc(CC(=O)Nc2cc(C3CCC3)[nH]n2)cc1OC, the “fold change (FC)” value (MIA PaCa-2 [1]) is reported as <2 and the inhibition [2] is reported as > 90%.
For O=C(Cc1ccc2ccccc2c1)Nc1cc(C2CC2)n[nH]1, the “fold change (FC)” value (MIA PaCa-2 [1]) was <2 and the inhibition [2] was > 90%.
With O=C(C/C=C/c1ccccc1)Nc1n[nH]c2ccccc12 the “fold change (FC)” value (MIA PaCa-2 [1]) was <2 and the inhibition [2] was > 90%.
For Cc1cc(NC(=O)Cc2ccc3c(c2)OCCO3)n[nH]1, the “fold change (FC)” value (MIA PaCa-2 [1]) was <2 and the inhibition [2] was > 90%.
For O=C(Cc1ccc2ccccc2c1)Nc1cc(C2CCC2)[nH]n1, the IC50 (ASPC1) was 1160 nM, the IC50 (BXPC-3) was > 2000 nM and the IC50 [11] was 875 nM. The IC50 [12] was > 2000 nM, the “fold change (FC)” value (MIA PaCa-2 [1]) was >2 and the inhibition [2] was > 90%.
In the case of O=C(NC1CCNCC1)c1n[nH]cc1NC(=O)c1c(Cl)cccc1Cl [AT-7519], the IC50 (BXPC-3) is reported as 640 nM, the IC50 (MIA PaCa-2 [10]) is reported as 411 nM and the IC50 [11] is reported as 2770 nM. It also gave an IC50 [12] of 557 nM.
For O=C(C/C=C/c1ccccc1)Nc1cc(C2CCC2)[nH]n1, the IC50 (ASPC1) was > 2000 nM, the IC50 (BXPC-3) was > 2000 nM and the IC50 (MIA PaCa-2 [10]) was 1560 nM. For the same compound, the IC50 [11] was 1470 nM, the IC50 [12] was > 2000 nM and the “fold change (FC)” value (MIA PaCa-2 [1]) was >2. For the same compound, the inhibition [2] was > 90%.
With O=C(C/C=C/c1ccccc1)Nc1cc(C2CCCC2)[nH]n1 the “fold change (FC)” value (MIA PaCa-2 [1]) was <2 and the inhibition [2] was > 90%.
In the case of COc1ccc(CC(=O)Nc2n[nH]c3ccccc23)cc1OC, the “fold change (FC)” value (MIA PaCa-2 [1]) is reported as <2 and the inhibition [2] is reported as > 90%.
In the case of Cc1cc(NC(=O)Cc2ccc3ccccc3c2)n[nH]1, the “fold change (FC)” value (MIA PaCa-2 [1]) is reported as <2 and the inhibition [2] is reported as > 90%.
